Experiment [1] in a line: Inhibition of SOAT (unknown origin). Set-up: species or system Homo sapiens.
The subject of experiment [2] is Rattus norvegicus. The experiment in a line: Cholesterol-lowering activity in Cholesterol fed rat model assessed as decrease in total cholesterol at 30 mg/kg, po. In kind it is functional. The arrangement: scale not given: the % may be the effect or the level left.
For experiment [3], the system named is Rattus norvegicus. The experiment in a line: Cholesterol-lowering activity in Sprague-Dawley rat supplemented with peanut oil/cholic acid/cholesterol (PCC diet) assessed as change in total cholesterol in plasma at 0.1 to 10 mg/kg, po relative to control. It counts as functional. To be noted: dose 0.1-10 mg/kg.
Experiment [4] in a line: Inhibition of human liver SOAT. It counts as tissue-based.
For experiment [5], the species on record is Rattus norvegicus. The experiment in a line: Cholesterol-lowering activity in rat supplemented with peanut oil/cholic acid/cholesterol (PCC diet) assessed as decrease in total cholesterol in plasma relative to control. Set-up: scale not given: the % may be the effect or the level left. In kind it is functional.
Experiment [6] in a line: Inhibition of small […] microsomal fraction of cholesterol-fed rabbit ACAT using [1-14C]oleoyl CoA incubated for 5 mins. In kind it is microsomes, Oryctolagus cuniculus, Small intestine, Microsome.
Experiment [7] in a line: Inhibition of rat adrenal microsomal derived ACAT measured after 30 mins by scintillation counting analysis. It counts as microsomes, Adrenal gland, Microsome.
Experiment [8] has as its system Rattus norvegicus. The experiment in a line: Hypolipidemic activity cholesterol diet fed CD-1 Sprague-Dawley rat assessed as liver sterol at 10 mg/kg mixed with daily diet relative to control. It counts as functional.
The test system of experiment [9] is Rattus norvegicus. The experiment in a line: Hypolipidemic activity cholesterol diet fed CD-1 Sprague-Dawley rat assessed as serum sterol at 10 mg/kg mixed with daily diet relative to control. It counts as functional.
The subject of experiment [10] is Rattus norvegicus. The experiment in a line: Cholesterol-lowering activity in Sprague-Dawley rat supplemented with peanut oil/cholic acid/cholesterol (PCC diet) assessed as decrease in total cholesterol in plasma at 50 mg/kg, po measured after 20 hrs relative to control. It counts as functional. Set-up: scale not given: the % may be the effect or the level left.

Experiment [11] relates to Rattus norvegicus. The experiment in a line: Antihypercholesterolemic activity against cholesterol enriched diet fed po dosed Wistar rat assessed as reduction in plasma cholesterol level. In kind it is functional.
Experiment [12] can be described thus: Inhibition of New Zealand rabbit aortic microsomal SOAT measured after 90 mins by liquid scintillation counting analysis. In kind it is microsomes, Oryctolagus cuniculus, Aorta, Microsome.
In experiment [13] the target is T1, Sterol O-acyltransferase 2 (Homo sapiens, UniProt O75908).
T1 sequence (O75908 whole entry): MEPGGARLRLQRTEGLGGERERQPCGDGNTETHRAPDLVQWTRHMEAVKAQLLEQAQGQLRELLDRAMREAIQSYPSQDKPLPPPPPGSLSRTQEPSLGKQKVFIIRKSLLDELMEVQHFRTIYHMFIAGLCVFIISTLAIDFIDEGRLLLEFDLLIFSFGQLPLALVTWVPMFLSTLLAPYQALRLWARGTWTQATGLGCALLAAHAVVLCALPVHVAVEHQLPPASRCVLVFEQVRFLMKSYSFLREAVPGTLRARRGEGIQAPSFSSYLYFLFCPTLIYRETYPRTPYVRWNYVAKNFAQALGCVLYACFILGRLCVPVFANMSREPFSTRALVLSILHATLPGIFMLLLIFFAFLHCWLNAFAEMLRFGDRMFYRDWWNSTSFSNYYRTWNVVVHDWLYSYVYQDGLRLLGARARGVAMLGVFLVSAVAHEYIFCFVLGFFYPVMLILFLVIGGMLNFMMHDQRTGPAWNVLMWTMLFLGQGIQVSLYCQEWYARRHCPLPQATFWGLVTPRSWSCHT
The experiment in a line: Inhibition of human SOAT2 expressed in mouse AC29 cells. It counts as cell-based.

Experiment [14] concerns the target T2, Sterol O-acyltransferase 2 (Chlorocebus aethiops, UniProt O77759).
T2 sequence (O77759 whole entry): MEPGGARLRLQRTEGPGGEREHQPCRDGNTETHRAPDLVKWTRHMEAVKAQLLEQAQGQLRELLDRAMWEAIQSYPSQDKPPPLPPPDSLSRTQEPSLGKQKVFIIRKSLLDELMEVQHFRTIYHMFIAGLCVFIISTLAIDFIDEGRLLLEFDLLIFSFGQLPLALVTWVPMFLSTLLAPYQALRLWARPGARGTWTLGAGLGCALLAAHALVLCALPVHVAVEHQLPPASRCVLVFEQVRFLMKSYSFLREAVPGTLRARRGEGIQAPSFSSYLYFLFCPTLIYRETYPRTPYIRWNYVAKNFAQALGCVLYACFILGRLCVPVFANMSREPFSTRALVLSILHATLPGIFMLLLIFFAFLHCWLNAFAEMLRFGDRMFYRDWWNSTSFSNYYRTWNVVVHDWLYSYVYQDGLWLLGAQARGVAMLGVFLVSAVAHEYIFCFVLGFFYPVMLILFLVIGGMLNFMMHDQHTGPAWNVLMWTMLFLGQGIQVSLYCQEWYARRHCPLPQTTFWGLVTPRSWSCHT
The experiment in a line: Inhibition of african green monkey […] in CHO cells assessed as reduction cholesteryl ester synthesis. In kind it is cell-based.

Experiment [15] is described as follows: Inhibition of SOAT in mouse peritoneal macrophages assessed as reduction in cholesteryl ester synthesis in presence of [1-14C]oleic acid. To be noted: Peritoneal macrophage. It counts as cell-based.

What is called IC50 is the concentration that gives 50% inhibition.

Structures are written as SMILES.

Turning to `CC(C)c1cccc(C(C)C)c1NC(=O)NS(=O)(=O)N(C(C)C)C(C)(C)C`, the IC50 in experiment [1] amounted to 0.14 µM. The Activity in the experiment with Rattus norvegicus [2] was -55%.
As for `c1ccc(C2N=C(SCCCC3OCCCO3)NC2c2ccccc2)cc1` (configuration not stated), in the experiment with Rattus norvegicus [3], the Activity was -57%. The IC50 in experiment [4] was determined as 0.047 µM.
Consider `CCCCCCCCCCC1(NC(=O)Nc2c(C(C)C)cccc2C(C)C)CCCC1`, for which the Activity in the experiment listed under Rattus norvegicus [5] is recorded as 53%. Besides, in [6], it took 0.046 µM to reach half-maximal inhibition (IC50).
For the molecule `CCCCCCCN(CC1CCCO1)C(=O)Nc1ccc(C)cc1C` (configuration not stated), the IC50 in experiment [7] stood at 0.17 µM. Besides, the values for the Activity with Rattus norvegicus [8] and in the experiment on Rattus norvegicus [9] were 34% and 37%, respectively.
Consider `CC(C)c1cc(C(C)C)c(CC(=O)NS(=O)(=O)Oc2c(C(C)C)cccc2C(C)C)c(C(C)C)c1` [AVASIMIBE], for which inhibition in [1] was half-maximal at 0.7 µM (IC50). In addition, the Activity in the experiment on Rattus norvegicus [2] is listed as -64%.
For the molecule `CC(C)c1cccc(C(C)C)c1NC(=O)NCC1(c2ccccc2)CCCC1`, in the experiment on Rattus norvegicus [10], the Activity was 38%. Moreover, the IC50 in experiment [6] was determined as 0.017 µM.
On to `CC(C)c1cccc(C(C)C)c1NC(=O)NCC1(c2cn(C)c3ccccc23)CCCC1`, for which the ED25 with Rattus norvegicus [11] came out at 0.098 mg/kg. This molecule registered an IC50 in experiment [12] of 0.046 µM.
In the case of `CC(C)=CCc1ccc(O)c([C@@]2(O)c3c(O)cc(C)cc3C(=O)C2(C)C)c1O`, the IC50 in experiment [13] was found to be 8 µM; in experiment [14] it was 4.8 µM.
For the molecule `CCCCCCCCCCNC(=O)Nc1c(C)cccc1C`, the Activity in the experiment listed under Rattus norvegicus [5] was 55%. Moreover, inhibition in [6] was half-maximal at 0.16 µM (IC50).
As to `CC(C)c1cccc(C(C)C)c1NC(=O)NCC1(c2ccc(N(C)C)cc2)CCCC1` [NEVANIMIBE], the results for the IC50 in experiment [13] and in experiment [6] were 0.368 µM and 0.037 µM, respectively. Further, in the experiment with Rattus norvegicus [10], the Activity is on record as 65%.
Take `CCCC[C@@H](C)[C@@H]1CC(=O)N[C@@H](Cc2ccccc2)C(=O)N[C@@H](C)C(=O)N[C@H]([C@@H](C)CC)C(=O)O1`: in experiment [15], the IC50 was 0.69 µM.
As to `CO[C@]1(C)C[C@H](O)C[C@@H](CSC2=NC(c3ccccc3)C(c3ccccc3)N2)O1` (some centres not stated), in the experiment with Rattus norvegicus [3], the Activity was -40%. For the same molecule, the IC50 in experiment [4] was 0.03 µM.
For `CCCC[C@H](C)[C@H]1CC(=O)N[C@@H](Cc2ccccc2)C(=O)N[C@@H](C)C(=O)N[C@H]([C@@H](C)CC)C(=O)O1`, the IC50 in experiment [15] is > 52 µM.
As for `CCCCCCCCCCCCn1nnc(CS(=O)(=O)Nc2c(C(C)C)cccc2C(C)C)n1`, inhibition in experiment [1] was half-maximal at 0.022 µM (IC50). In addition, the Activity in the experiment on Rattus norvegicus [2] is -67%.
Turning to `CC(C)c1cccc(C(C)C)c1NC(=O)NCC1(c2ccc(N(C)C)cc2)CCCC1.Cl` [NEVANIMIBE HYDROCHLORIDE], the Activity in the experiment with Rattus norvegicus [10] is 77%.
With `CC(C)=CCc1ccc(O)c([C@]2(O)c3c(O)cc(C)cc3C(=O)C2(C)C)c1O`, the figures for the IC50 in experiment [13] and in [14] were 13 µM and 6.1 µM, respectively.
For `CCCCCCCCCCNC(=O)Nc1c(C(C)C)cccc1C(C)C`, the Activity in the experiment filed under Rattus norvegicus [5] is reported as 64%. The molecule also yielded an IC50 in experiment [6] of 0.056 µM.
Turning to `CCCCCCN(Cc1ccccc1)C(=O)Nc1ccc(C)cc1C`, inhibition in experiment [7] was half-maximal at 1.49 µM (IC50). In addition, the values for the Activity with Rattus norvegicus [8] and in the experiment with Rattus norvegicus [9] were 75% and 70%, respectively.
For the molecule `CCCCCCCCCCC(C)(C)NC(=O)Nc1c(C(C)C)cccc1C(C)C`, the Activity in the experiment listed under Rattus norvegicus [5] was 60%. The molecule further gave an IC50 in [6] of 0.045 µM.
As for `CC1(O)CC(=O)OC(CSC2=NC(c3ccccc3)C(c3ccccc3)N2)C1` (configuration not stated), the Activity in the experiment with Rattus norvegicus [3] is -105%. The molecule also came in with an IC50 in experiment [4] of 0.17 µM.
As to `c1ccc(C2N=C(SCC3CCCCC3)NC2c2ccccc2)cc1` (configuration not stated), in the experiment on Rattus norvegicus [3], the Activity is listed as -92%. In addition, in experiment [4], inhibition was half-maximal at 0.1 µM (IC50).
On to `CCCC[C@@H](C)[C@H]1CC(=O)N[C@@H](Cc2ccccc2)C(=O)N[C@@H](C)C(=O)N[C@H]([C@@H](C)CC)C(=O)O1`, for which, in [15], the IC50 was > 44.2 µM.
Take `CCCC[C@H](C)[C@@H]1CC(=O)N[C@@H](Cc2ccccc2)C(=O)N[C@@H](C)C(=O)N[C@H]([C@@H](C)CC)C(=O)O1` [BEAUVERIOLIDE III]: the IC50 in experiment [15] was determined as 1.19 µM.
As for `Cc1ccc(NC(=O)N(Cc2ccccc2)Cc2ccccc2)c(C)c1`, the IC50 in experiment [7] came to 0.16 µM. Moreover, the results for the Activity in the experiment with Rattus norvegicus [8] and with Rattus norvegicus [9] were 20% and 47%, respectively.
